Data set [1] deals with Vascular Endothelial Growth Factor (VEGF) production by human melanoma cell line RPMI-7951. As to the kind of experiment: VEGF ELISA, RPMI-7951. Particulars: RPMI-7951; for VEGF ELISA: DMSO control 3713. In general terms: In an ELISA, binding on a coated surface is turned into a signal by an enzyme label.
Procedure: RPMI-795 1, MDA-MB-231 and MDA-MB-435 cell lines were cultured in MEM-alpha medium (GIBCO-BRL, Long Island, N.Y.) containing 10% fetal bovine serum (RPMI-7951, MDA-MB-231) or 5% FBS (MDA-MB-435) at 37° C. and under 5% CO2/95% air. […] The cells were cultured in 48 well plates in all of the experiments described.
A VEGF enzyme-linked immunosorbent assay (ELISA) was utilized to determine the effect of the compounds of the present invention on VEGF production of a variety of human cancer cell lines. For the VEGF assay, cells were plated at a concentration of 80,000 cells/well and cultured overnight. Compounds or vehicle (DMSO 0.1%) were then added and the plates were incubated for 72 hours. Supernatant was then collected from each well and frozen in a −80° C. freezer until needed. Cell viability was determined by Neutral Red Assay. VEGF ELISA Kit (R & D, Minneapolis, Minn.) was used to determine the amount of VEGF in the culture supernatants. The ELISA was carried out according to the manufacturer's procedure.
A further data set relates to RPMI-7951 human melanoma. In words: Neutral Red Assay, cell viability, RPMI-7951. To be noted: RPMI-7951; for Cell Viability: DMSO = 100; for Neutral Red Uptake, %: 72 hours.
A further data set deals with HL-60 (TB). In words: cells. To be noted: Homo sapiens, HL-60, 48 h.
Another data set relates to MOLT-4. As to the kind of experiment: cells. To be noted: Homo sapiens, MOLT-4, 48 h.
The subject of another data set is EKVX. As to the kind of experiment: cells. Particulars: Homo sapiens, 48 h.
In another data set the test system is NCI-H226. In words: cells. To be noted: Homo sapiens, NCI-H226, 48 h.
For another data set, the system named is NCI-H23. In words: cells. To be noted: Homo sapiens, NCI-H23, 48 h.
The test system of the next data set is NCI-H522. In words: cells. Particulars: Homo sapiens, NCI-H522, 48 h.
Another data set deals with COLO 205. As to the kind of experiment: cells. To be noted: Homo sapiens, COLO 205, 48 h.
The next data set concerns HT29. In words: cells. Particulars: Homo sapiens, HT-29, 48 h.
The test system of a further data set is SW-620. In words: cells. Particulars: Homo sapiens, SW-620, 48 h.
In the next data set the test system is SF-295. As to the kind of experiment: cells. Particulars: Homo sapiens, SF-295, 48 h.
The subject of another data set is SF-539. As to the kind of experiment: cells. Particulars: Homo sapiens, SF-539, 48 h.
The subject of another data set is SNB-19. As to the kind of experiment: cells. Particulars: Homo sapiens, SNB-19, 48 h.
For a further data set, the system named is U251. In words: cells. To be noted: Homo sapiens, U-251, 48 h.
The next data set concerns LOX IMVI. As to the kind of experiment: cells. Particulars: Homo sapiens, 48 h.
In the next data set the test system is SK-MEL-2. In words: cells. Particulars: Homo sapiens, SK-MEL-2, 48 h.
In a further data set the test system is UACC-257. In words: cells. Particulars: Homo sapiens, UACC-257, 48 h.
In the next data set the test system is UACC-62. As to the kind of experiment: cells. Particulars: Homo sapiens, UACC-62, 48 h.
A further data set relates to IGROV1. As to the kind of experiment: cells. Particulars: Homo sapiens, IGROV-1, 48 h.
Another data set has as its system 786-0. In words: cells. To be noted: Homo sapiens, 786-0, 48 h.
The test system of the next data set is A498. As to the kind of experiment: cells. To be noted: Homo sapiens, A498, 48 h.
In the next data set the test system is ACHN. In words: cells. To be noted: Homo sapiens, 48 h.
A further data set deals with CAKI-1. In words: cells. Particulars: Homo sapiens, CAKI-1, 48 h.
Another data set deals with PC-3. In words: cells. To be noted: Homo sapiens, PC-3, 48 h.
The next data set concerns NCI/ADR-RES. As to the kind of experiment: cells. Particulars: Homo sapiens, 48 h.
A further data set deals with MDA-MB-231. As to the kind of experiment: cells. To be noted: Homo sapiens, MDA-MB-231, 48 h.
The test system of the next data set is HS 578T. As to the kind of experiment: cells. To be noted: Homo sapiens, 48 h.
The next data set relates to MDA-MB-435. In words: cells. To be noted: Homo sapiens, MDA-MB-435, 48 h.
The mark [2] stands for this setting: 5 μM, DMSO control 4197 (EF-25: 1045).
[3] abbreviates: read-out: Median Growth Inhibitory Concentration (GI50).
Setting [4] is: read-out: Median Lethal Concentration (LC50).

Marks after values point to notes of the source that are not given here.

On to “3,5-Bis(2-hydroxybenzylidene)-sulfone [EF11]”, for which, in data set [1] (20 μM, DMSO = 100), the VEGF turned out to be 51%. Also, the “Cell Viability” value in the data set with RPMI-7951 human melanoma (20 μM) worked out at 93%.

For `N.N.[Cl][Pt][Cl]` [Cisplatin, reference compound], the “Neutral Red Uptake, %” value in the data set on RPMI-7951 human melanoma (5 μM) and with RPMI-7951 human melanoma (20 μM) was 100 % of control in each case.

Turning to `C(=C\c1ccccc1)/S/C=C/c1ccccc1` [EF15], the VEGF was 28% in data set [1] (5 μM, DMSO = 100); 1187 pg/mL in [1] (setting [2]); 22% in [1] (20 μM, DMSO = 100); 938 pg/mL in data set [1] (20 μM, DMSO control 4197). Also, the “VEGF ELISA” value is reported as 2361 pg/ml/well in data set [1] (5 μM) and 894 pg/ml/well in [1] (20 μM). The “Neutral Red Uptake, %” value with RPMI-7951 human melanoma (5 μM) and with RPMI-7951 human melanoma (20 μM) was 100 % of control each time. In addition, the “Cell Viability” value in the data set with RPMI-7951 human melanoma (5 μM) turned out to be 112%; in the data set with RPMI-7951 human melanoma (20 μM) it was 111%.

As to `OC(CCc1ccc(F)cc1F)CCc1ccc(F)cc1F` [EF19, 1,5-Bis(2,4-difluorophenyl)-pentan-3-ol], the GI50 stood at 18.1 µM with HL-60 (TB) (setting [3]); 2.6 µM in the data set with MOLT-4 (setting [3]); 17.5 µM in the data set with EKVX (setting [3]); 19.9 µM in the data set with NCI-H226 (setting [3]); 22.8 µM in the data set on NCI-H23 (setting [3]); 18.2 µM in the data set with NCI-H522 (setting [3]). Further, the GI50 was 17.5 µM with COLO 205 (setting [3]); 17.9 µM in the data set with HT29 (setting [3]); 17.7 µM in the data set on SW-620 (setting [3]); 18.7 µM in the data set with SF-295 (setting [3]); 16.9 µM in the data set with SF-539 (setting [3]); 16.1 µM in the data set on SNB-19 (setting [3]). Further, the GI50 in the data set on U251 (setting [3]) is 17.4 µM; in the data set on LOX IMVI (setting [3]), 20 µM; in the data set on SK-MEL-2 (setting [3]) it was 18.4 µM; in the data set with UACC-257 (setting [3]), 17.9 µM; with UACC-62 (setting [3]), 15.1 µM; with IGROV1 (setting [3]), 17.2 µM. Besides, the GI50 in the data set on 786-0 (setting [3]) turned out to be 17 µM; in the data set on A498 (setting [3]), 16.3 µM; in the data set on ACHN (setting [3]) it was 17.8 µM; in the data set on CAKI-1 (setting [3]), 21.8 µM; in the data set with PC-3 (setting [3]), 17.5 µM; in the data set on NCI/ADR-RES (setting [3]), 25.3 µM. Moreover, the GI50 came to 22.4 µM in the data set on MDA-MB-231 (setting [3]), 21.9 µM in the data set on HS 578T (setting [3]) and 17.1 µM in the data set on MDA-MB-435 (setting [3]). Besides, the CC50 came out at 66.8 µM with HL-60 (TB) (setting [4]); 75.6 µM with MOLT-4 (setting [4]); 57.7 µM with EKVX (setting [4]); 75.7 µM with NCI-H226 (setting [4]); 96.8 µM in the data set with NCI-H23 (setting [4]); 75.4 µM in the data set on NCI-H522 (setting [4]). The CC50 came out at 55.9 µM with COLO 205 (setting [4]); 62.6 µM in the data set with HT29 (setting [4]); 63.7 µM with SW-620 (setting [4]); 69.7 µM in the data set on SF-295 (setting [4]); 55.3 µM in the data set with SF-539 (setting [4]); 57.3 µM with SNB-19 (setting [4]). Besides, the CC50 is 55.8 µM with U251 (setting [4]); 74.4 µM with LOX IMVI (setting [4]); 57 µM with SK-MEL-2 (setting [4]); 56.3 µM in the data set with UACC-257 (setting [4]); 53.2 µM in the data set on UACC-62 (setting [4]); 55.6 µM in the data set with IGROV1 (setting [4]). Besides, the CC50 in the data set with 786-0 (setting [4]) was 55.4 µM; in the data set with A498 (setting [4]) it was 54.7 µM; in the data set with ACHN (setting [4]) it was 56.3 µM; in the data set on CAKI-1 (setting [4]) it was 67.8 µM; in the data set on PC-3 (setting [4]), 56.7 µM; in the data set on NCI/ADR-RES (setting [4]), over 100 µM. In addition, the CC50 is 66.3 µM in the data set with MDA-MB-231 (setting [4]), over 100 µM in the data set with HS 578T (setting [4]) and 55.6 µM with MDA-MB-435 (setting [4]).

On to `O=C1C(=Cc2ccccc2O)COCC1=Cc1ccccc1O` [EF25, 3,5-Bis(2-hyrdoxybenzylidene)tetrahydro4-H-pyran4-one], for which the VEGF in data set [1] (5 μM, DMSO = 100) is given as 21%; in data set [1] (setting [2]), 216* pg/ml. Besides, the “Cell Viability” value in the data set on RPMI-7951 human melanoma (5 μM) is 12%.

The values are drawn from US7371766B2, “Curcumin analogs with anti-tumor and anti-angiogenic properties” (Emory University, priority 1999, dated 2008).
